From patent US10350210B2, “EGFR and ALK dual inhibitor” (PRECEDO PHARMACEUTICALS CO., LTD, priority 2015, dated 2019)

Columns and labels:
NCI-H1975 = assay: Growth of cancer cells (Cell Titer-Glo viability), NCI-H1975; format: cell-based; details: Homo sapiens; NCI-H1975 (EGFR L858R/T790M double mutant), 72 hrs
Procedure, shortened: (§1)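 Cells are counted as viable by CellTiter-Glo chemiluminescence. Murine BaF3 lines depend on a stably transfected TEL-fused kinase after IL-3 withdrawal, and the NSCLC lines express mutant EGFR.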

PC-9 = assay: Growth of cancer cells (Cell Titer-Glo viability), PC-9; format: cell-based; details: Homo sapiens; PC-9 (EGFR delE746_A750 mutant), 72 hrs
Procedure, shortened: as §1

ALK protein (H3122) = assay: Effect on signaling pathway in cells, H3122; format: cell-based, human; details: H3122 (expressing ALK gene), 4 h
Protocol: In non-small cell lung cancer cell line H3122 (expressing ALK gene), the effect of Compound 1 on other protein kinases that are closely related to ALK such as Stat3, Ras, MEK1/2, ErK, mTOR, PI3K, JAK3, AKT in this cell was assessed by assaying a number of cellular biochemical and functional endpoints. […] The effect of Compound 1 on phosphorylation of Stat3 Y705, Ras, MEK1/2S217/221, Erk T202/204, mTOR, PI3K, JAK3Tyr980/981, AKT T308, AKT 5473 in this cell line was assayed (FIG. 1e).
In non-small cell lung cancer cell line H3122 (expressing ALK gene), the effect of Compound 10 on ALK and other protein kinases that are closely related to ALK such as Stat3, Ras, MEK1/2, ErK, mTOR, PI3K, JAK3, AKT in this cell was assessed by assaying a number of cellular biochemical and functional endpoints. The lung cancer cell H3122 (expressing ALK gene) was treated with different concentrations of 0 μM, 0.03 μM, 0.1 μM, 0.3 μM, 1 μM, 3 μM of Compound 10 (in DMSO), 1 μM of AZD9291 (in DMSO) (purchased from Shanghai Haoyuan Chemexpress Co., Ltd.), 1 μM of LDK378 (in DMSO) (purchased from Shanghai Haoyuan Chemexpress Co., Ltd.), and blank control (DMSO) for 4 h, and the samples were collected. The effect of Compound 10 on phosphorylation of ALK Y1604, Stat3 Y705, Ras, MEK1/25217/221, Erk T202/204, mTOR, PI3K, JAK3 Tyr980/981, AKT T308, AKT S473 in this cell line was assayed (FIG. 1f).

Row | GI50 (NCI-H1975) [nM] | GI50 (PC-9) [nM] | Structure (SMILES) | concentration able to significantly inhibit the phosphorylation of ALK protein (ALK protein (H3122)) [µM] | concentration that almost completely inhibited the phosphorylation of ALK protein (ALK protein (H3122)) [µM] | effects on other protein kinases closely related to ALK protein (Stat3, Ras, MEK1/2, ErK, JAK3, AKT) (ALK protein (H3122))
1 | 67 | 0.7 | C=CC(=O)Nc1cc(Nc2ncc(Cl)c(Nc3ccccc3S(=O)(=O)C(C)C)n2)c(OC)cc1N1CCN(CC)CC1 [Compound 1, N-(5-(5-chloro-4-(2-(isopropylsulfonyl)phenylamino)pyrimidin-2-ylamino)-2-(4-ethylpiperazin-1-yl)-4-methoxyphenyl)acrylamide] | 0.1 | 0.3 | evident effects
2 | 15 | 15 | C=CC(=O)Nc1cc(Nc2ncc(Cl)c(Nc3ccccc3S(=O)(=O)C(C)C)n2)c(OC)cc1N1CCCN(C)CC1 [Compound 10, N-(5-(5-chloro-4-(2-(isopropylsulfonyl)phenylamino)pyrimidin-2-ylamino)-4-methoxy-2-(4-methyl-1,4-homopiperazin-1-yl)phenyl)acrylamide] | 0.03 | 0.1 | evident effects
